Laboratory results from patent US6689759B1, “Methods of Treating hepatitis virus infections with N-substituted-1,5-dideoxy-1,5-imino-d-glucitol compounds in combination therapy” (G. D. Searle & Co., priority 2000, dated 2004).

What was measured:
[1] = system: woodchuck hepatitis virus (WHV); assay: Woodchuck model, N-nonyl-DNJ monotherapy, BID oral dosing, total HBV DNA and IPDNA; format: in vivo
Description: Therefore, five groups of four animals each (all groups had both sexes, all but the control had two of each sex) were assigned to 0, 12.5, 25, 50, and 100 mg/kg/day with BID oral dosing. These were lab-reared wild animals. All animals were infected with woodchuck hepatitis virus (WHV) as neonates, and had been tested positive on serological tests for WHV surface antigen. Blood samples were drawn one week prior to dosing (−1 week), immediately before dosing (0 weeks), weekly during dosing (1, 2, 3, and 4 weeks), and after the end of dosing (5, 6, 8, and 10 weeks).
(§1) There are two measures of drug efficacy: reduction in total HBV DNA (measured by quantitative PCR), and reduction in HBV DNA from capsids with intact surface glycoproteins, which is the active form of the virus (measured by an ELISA-like immune precipitation assay followed by quantitative PCR).
Before models are fitted to the data, a log transform was applied because: 1) the variation in IPDNA increases with increasing IPDNA values; the log transformation gives values with a nearly constant variation, and 2) it is expected that drug effects will appear as a constant multiplier of the IPDNA level. Because there are zero values of IPDNA, a small value (about ½ of the smallest non-zero value) was added to all values before the log transform.
Two approaches were used to model the changes in slope to week with dose of N-nonyl-DNJ: a linear modeling approach and a nonlinear model. Both approaches assume that the (linear) rate of change of the Log(IPDNA) measure over the dosing period is the “right” measure to reflect the effect of the drug on the virus. Both approaches are fit in stages, and the first stage is common to both approaches. First, a simple straight line regression model is fit using weeks 0-4 to predict log(IPDNA+10) separately for each animal by run combination. In the second stage, the response variable is the slope fitted in the first stage.
For the linear approach, a model is fit with slope to week as the response where run is considered a block, dose has a significant effect (almost all of this effect is due to a slope to dose), and the relevant error for testing the effect of dose is the variation among animals treated alike (after the adjustment for the runs as blocks). This is similar to using the calibration data within each run to first adjust each run's data to a common virus DNA concentration; the difference is that here the data from the woodchucks are used for the run adjustment rather than only the calibration data.
For the nonlinear approach, a four parameter logistic model is fit with the slope to week as the response and the dose as the predictor. Again, run is considered a block, but because no run has all weeks, it is not possible to fully reflect the blocking in the nonlinear approach. […] The average maximum slope observed was 2.71 additional Log(IPDNA μg/mL)/week, or an increase of about 150%/week, the average minimum slope observed with N-nonyl-DNJ is 0.31 fewer Log(IPDNA μg/mL)/week), or about a decrease of about 25%/week. The slopes, the fitted model, the parameter estimates from the-model, and the approximate standard errors for these parameters are all shown in FIG. 3. […] Whether in woodchucks or humans, the effective dose of both the N-alkyl-DNJ and nucleoside or nucleotide antiviral agent administered in combination therewith can be administered in two equal daily subdoses (i.e., B.I.D.).

[2] = system: HBV DNA; assay: Cell culture experiments with N-nonyl-DNJ: total HBV DNA and immune precipitated DNA (IPDNA); format: cell-based
From the text: as §1

[3] = in vivo; cited from earlier work
[4] = system: Hepatitis B virus; details: literature; cited from earlier work
[5] = HIV infected patients; cited from earlier work

With CCCCCCCCCN1C[C@H](O)[C@@H](O)[C@H](O)[C@H]1CO [N-nonyl-DNJ, N-(n-nonyl-)-1,5-dideoxy-1,5-imino-D-glucitol] the “average maximum slope observed” value ([1]; additional Log(IPDNA)/week, i.e. an increase, low dose end of the model) was 2.71 Log(IPDNA μg/mL)/week, the “average minimum slope observed” value ([1]; fewer Log(IPDNA)/week, i.e. a decrease) was 0.31 Log(IPDNA μg/mL)/week and the EC50 ([1]; four parameter logistic model, slope of Log(IPDNA+10) to week versus dose) was 7.88 mg/kg/BID dose. For the same compound, the “decrease of IPDNA at the average minimum slope” value ([1]; in vivo) was “about 25 %/week”, the “increase of IPDNA at the average maximum slope” value ([1]; low dose end of the model) was “about 150 %/week” and the “effect on total HBV DNA measurements” value ([1]; woodchuck, all dose levels, quantitative PCR) was “no effect”. The “slope of IPDNA over weeks 0-4” value ([1]; woodchuck, change in slope statistically significant (p<0.005)) was “generally increasing for low dose animals and decreasing for high dose animals”, the “approximate effective monotherapy dose” value ([1]; woodchucks) was “about 16 mg/kg/day” and the “effect on immune precipitated DNA (IPDNA)” value [2] was “marked effect”. The “effect on total HBV DNA” value [2] was “little or no effect”.
In the case of O=c1[nH]c(=O)n([C@@H]2O[C@H](CO)[C@@H](O)[C@@H]2F)cc1I [fialuridine], the toxicity [3] is given as “drug-related liver failure leading to death in some patients”.
For CCCCN1C[C@H](O)[C@@H](O)[C@H](O)[C@H]1CO [n-butyl-DNJ, N-butyl-1-5-dideoxy-1,5-imino-D-glucitol], the “usefulness against Hepatitis B infection” value [4] is listed as “effective” and the tolerability [5] is listed as “well tolerated”.
In the case of Cc1cn([C@H]2C[C@H](N=[N+]=[N-])[C@@H](CO)O2)c(=O)[nH]c1=O [zidovudine, 3′-azido-3′-deoxythymidine, reference compound], the “usefulness against Hepatitis B infection” value [4] is listed as “appears to have little use against the same virus”.
